Measurements reported in PubChem BioAssay (NCI).
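GI50 marks 50% less growth. At the TGI there is no net growth.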

Assays:
Test in all cases: NCI-60 cell line screen, 384-well format; in the data active = GI50 below about 0.43 µM; inactive = the rest
[1] = system: OVCAR-3 ovarian
[2] = system: ACHN renal
[3] = system: HS 578T breast
[4] = system: SW-620 colon
[5] = system: K-562 leukemia
[6] = system: NCI-H322M lung
[7] = system: SNB-75 CNS
[8] = system: SF-268 CNS
[9] = system: M14 melanoma
[10] = system: SK-MEL-5 melanoma
[11] = system: OVCAR-4 ovarian
[12] = system: LOX IMVI melanoma
[13] = system: EKVX NSCLC
[14] = system: KM12 colon
[15] = system: A549 NSCLC
[16] = system: HCT-15 colon
[17] = system: DU-145 prostate
[18] = system: OVCAR-5 ovarian
[19] = system: RPMI-8226 leukemia
[20] = system: MDA-MB-468 breast
[21] = system: HCC-2998 colon
[22] = system: NCI/ADR-RES ovarian
[23] = system: HOP-62 NSCLC
[24] = system: SR leukemia
[25] = system: IGROV1 ovarian
[26] = system: HL-60(TB) leukemia
[27] = system: SN12C renal
[28] = system: MOLT-4 leukemia
[29] = system: NCI-H23 lung
[30] = system: MCF7 breast
[31] = system: NCI-H522 lung
[32] = system: OVCAR-8 ovarian
[33] = system: A498 renal
[34] = system: MDA-MB-435 melanoma
[35] = system: COLO 205 colon
[36] = system: TK-10 renal
[37] = system: 786-0 renal
[38] = system: UACC-257 melanoma
[39] = system: UO-31 renal
[40] = system: MALME-3M melanoma
[41] = system: MDA-MB-231 breast
[42] = system: SK-MEL-28 melanoma
[43] = system: SF-539 CNS
[44] = system: UACC-62 melanoma
[45] = system: PC-3 prostate
[46] = system: CCRF-CEM leukemia
[47] = system: HT29 colon
[48] = system: RXF 393 renal
[49] = system: HOP-92 NSCLC
[50] = system: T-47D breast
[51] = system: SK-OV-3 ovarian
[52] = system: SNB-19 CNS
[53] = system: SF-295 CNS
[54] = system: NCI-H460 NSCLC
[55] = system: BT-549 breast
[56] = system: CAKI-1 renal
[57] = system: NCI-H226 lung

N#Cc1cc(F)cc(Oc2ccc(S(=O)(=O)C(F)F)c3c2CC(F)(F)[C@H]3O)c1
55.2 µM: TGI [30]
43.1 µM: TGI [12]
inactive: GI50 [1] 25.1 µM | GI50 [2] 33.2 µM | GI50 [3] 20 µM | GI50 [4] 63.5 µM | GI50 [5] 18.3 µM | GI50 [6] 39.4 µM | GI50 [7] 34.4 µM | GI50 [8] 48.6 µM | GI50 [9] 33.7 µM | GI50 [10] 15.1 µM | GI50 [11] 14.8 µM | GI50 [12] 20 µM | GI50 [13] 27.3 µM | GI50 [14] 34.5 µM | GI50 [15] 26.9 µM | GI50 [16] 27.8 µM | GI50 [17] 26.2 µM | GI50 [18] 56.4 µM | GI50 [19] 11.8 µM | GI50 [20] 8.94 µM | GI50 [21] 41.4 µM | GI50 [22] 16.1 µM | GI50 [23] 30 µM | GI50 [24] 15.7 µM | GI50 [25] 41.6 µM | GI50 [26] 18.4 µM | GI50 [27] 32.7 µM | GI50 [28] 13.9 µM | GI50 [29] 14.2 µM | GI50 [30] 19.6 µM | GI50 [31] 19.8 µM | GI50 [32] 28.5 µM | GI50 [33] 19.8 µM | GI50 [34] 48.4 µM | GI50 [35] 38.7 µM | GI50 [36] 38.4 µM | GI50 [37] 31.6 µM | GI50 [38] 19.2 µM | GI50 [39] 36.4 µM | GI50 [40] 28.8 µM | GI50 [41] 25.4 µM | GI50 [42] 53.3 µM | GI50 [43] 33.6 µM | GI50 [44] 34.9 µM | GI50 [45] 29.9 µM | GI50 [46] 11.6 µM | GI50 [47] 43.9 µM | GI50 [48] 21.3 µM | GI50 [49] 16.3 µM | GI50 [50] 14.9 µM | GI50 [51] 26.2 µM | GI50 [52] 48.5 µM | GI50 [53] 30.2 µM | GI50 [54] 18.1 µM | GI50 [55] 21.1 µM | GI50 [56] 38.8 µM | GI50 [57] 22.7 µM
44 µM: TGI [33]
69.8 µM: TGI [3]
90.6 µM: TGI [17]
53.2 µM: TGI [11]
26 µM: TGI [20]
52 µM: TGI [22] | TGI [49]
33 µM: TGI [26]
86.3 µM: TGI [15]
67.4 µM: TGI [50]
71.8 µM: TGI [57]
97.3 µM: TGI [13]
27.1 µM: TGI [28]
28.9 µM: TGI [19]
33.9 µM: TGI [54]
48.5 µM: TGI [29]
93.6 µM: TGI [40]
30.5 µM: TGI [24]
47.2 µM: TGI [55]
68.5 µM: TGI [1]
29.4 µM: TGI [10]
> 100 µM: TGI [2] | TGI [4] | TGI [5] | TGI [6] | TGI [7] | TGI [8] | TGI [9] | TGI [14] | TGI [16] | TGI [18] | TGI [21] | TGI [23] | TGI [25] | TGI [27] | TGI [32] | TGI [34] | TGI [35] | TGI [36] | TGI [37] | TGI [39] | TGI [41] | TGI [42] | TGI [43] | TGI [44] | TGI [45] | TGI [47] | TGI [51] | TGI [52] | TGI [53] | TGI [56]
25.8 µM: TGI [46]
61.2 µM: TGI [31]
48.7 µM: TGI [38]
73.8 µM: TGI [48]
